Data taken from patent US9969762B2.
≈ marks a conversion by molar mass, not a printed value. Where two headings read alike, the source gives them in different places.

What was measured:
[1] = system: Agrobacterium tumefaciens; test: Antibacterial activity (MIC and MBC) in TY medium; type: cell-based; conditions: for MBC: plated on TY agar
[2] = system: Pectobacterium atrosepticum; test: Antibacterial activity (MIC and MBC) in TY medium; type: cell-based; conditions: for MBC: plated on TY agar
Dickeya dianthicola = test: Antibacterial activity (MIC and MBC) in TY medium; type: cell-based; conditions: for MBC: plated on TY agar
[3] = system: Agrobacterium tumefaciens, Pectobacterium atrosepticum and Dickeya dianthicola bacteria; test: Antibacterial activity, summary statements over the bacteria tested; type: cell-based; conditions: for inhibition of the growth of the bacteria (in words): after 36 h of incubation at 30° C., compared with 4-NPO
Phytophthora infestans = test: microbe, parasite or virus in culture; type: cell-based; conditions: after 6 days; 20 mg in 200 μl distilled water, spots of 10 μl
Fusarium sambucinum = conditions: for Inhibition of the growth of the Fusarium sambucinum fungi: compound in methanol, more than 10 days at 20° C.; for Inhibition of the growth of the fungi: compound in DMSO, 10 days at 20° C.
Procedure: (§1) The antifungal activity of the N-alkyl-glycosyl(di)amine derivatives of formula (I) and of the N-alkyl-glycamine derivatives of formula (III) synthesized according to the process of the invention was evaluated on two fungi: Fusarium roseum and Fusarium sambucinum.
(§2) For this, 500 μl of solution comprising the test derivative, dissolved in DMSO or methanol, are mixed with 19.5 ml of malt agar medium (Sigma aldrich) allowing the growth of these two Fusarium isolates. The test derivative is prepared in 2 ml of methanol, then mixed with 18 ml of malt agar medium (Sigma aldrich). A spot of 10 μl of culture of each Fusarium is then deposited at the center of each Petri dish. After 10 days of incubation at 20° C., the growth diameters are measured.
(§3) The range of concentrations of N-alkyl-glycosyl(di)amine derivatives of formula (I) tested ranges from 0.1 to 25 μmol/ml.
(§4) The Fusarium growth on media containing the various molecules is compared with that obtained only with DMSO or methanol.
(§5) The same antifungal evaluation protocol as the one previously described with the compound Ij was applied for other N-alkyl-glycosyl(di)amine derivatives of formula (I) and N-alkyl-glycamine derivatives of formula (III) at concentrations ranging from 1 to 20 μmol/ml.
(§6) 2 ml of solution comprising the test compound dissolved in methanol are mixed with 18 ml of agar malt medium (Sigma aldrich) allowing the growth of these two Fusarium isolates. A spot of 10 μl of culture of each Fusarium is then deposited at the center of each Petri dish. After more than 10 days of incubation at 20° C., the growth diameters are measured.

Fusarium roseum = conditions: for Inhibition of the growth of the Fusarium roseum fungi: compound in methanol, more than 10 days at 20° C.; for Inhibition of the growth of the fungi: compound in DMSO, 10 days at 20° C.
Procedure: as §1, §2, §3, §4, §5, §6

[4] = 36 h of culture at 30° C., TY medium

| SMILES | bactericidal activity (in words) [3] | inhibition of the growth of the bacteria (in words) [3] | MIC [1, 4] [µg/mL] | MIC [2, 4] [µg/mL] | Average diameters of inhibition zone (Phytophthora infestans) [mm] | MBC ([1]; 36 h of culture at 30° C.) [µg/mL] | MBC ([2]; 36 h of culture at 30° C.) [µg/mL] | Inhibition of the growth of the Fusarium sambucinum fungi (Fusarium sambucinum; 1 μmol/ml) [%] | Inhibition of the growth of the Fusarium sambucinum fungi (Fusarium sambucinum; 2.5 μmol/ml) [%] | Inhibition of the growth of the Fusarium sambucinum fungi (Fusarium sambucinum; 5 μmol/ml) [%] | Inhibition of the growth of the Fusarium roseum fungi (Fusarium roseum; 1 μmol/ml) [%] | Inhibition of the growth of the Fusarium roseum fungi (Fusarium roseum; 2.5 μmol/ml) [%] | Inhibition of the growth of the Fusarium roseum fungi (Fusarium roseum; 5 μmol/ml) [%] | Inhibition of the growth of the Fusarium sambucinum fungi (Fusarium sambucinum; 10 μmol/ml) [%] | Inhibition of the growth of the Fusarium sambucinum fungi (Fusarium sambucinum; 20 μmol/ml) [%] | Inhibition of the growth of the Fusarium roseum fungi (Fusarium roseum; 10 μmol/ml) [%] | Inhibition of the growth of the Fusarium roseum fungi (Fusarium roseum; 20 μmol/ml) [%] | further results |
| --- | --- | --- | --- | --- | --- | --- | --- | --- | --- | --- | --- | --- | --- | --- | --- | --- | --- | --- |
| O=[N+]([O-])c1cc[n+]([O-])cc1 [4-NPO, 4-Nitropyridine-N-oxide, reference compound] | – | – | – | – | – | – | – | – | – | – | – | – | – | – | – | – | – | MIC ([1]; Agrobacterium tumefaciens, 36 h, 36 h of culture at 30° C., TY medium, read-out: MIC): 125 µg/mL (≈ 892 µM); MIC ([1]; Agrobacterium tumefaciens, reference bacteriostatic molecule, read-out: MIC): 125 µg/mL (≈ 892 µM); MIC ([2]; Pectobacterium atrosepticum, 36 h, 36 h of culture at 30° C., TY medium, read-out: MIC): 125 µg/mL (≈ 892 µM); MIC ([2]; Pectobacterium atrosepticum, reference bacteriostatic molecule, read-out: MIC): 125 µg/mL (≈ 892 µM); MIC (Dickeya dianthicola; Dickeya dianthicola, 36 h of culture at 30° C., TY medium, read-out: MIC): 16 µg/mL (≈ 114 µM); MBC (Dickeya dianthicola; Dickeya dianthicola, 36 h of culture at 30° C., read-out: MBC): 16 µg/mL (≈ 114 µM); MIC (Dickeya dianthicola; Dickeya dianthicola, reference bacteriostatic molecule, read-out: MIC): 16 µg/mL (≈ 114 µM) |
| CC1OC(NCCCCCNC2OC(C)[C@H](O)C(O)C2O)C(O)C(O)[C@H]1O (some centres unmarked) [Ig] | showed a bactericidal activity | inhibition of the growth of the bacteria was observed | 125 (≈ 317 µM) | 125 (≈ 317 µM) | – | – | – | – | – | – | – | – | – | – | – | – | – | MBC ([1]; Agrobacterium tumefaciens, 36 h, 36 h of culture at 30° C., read-out: MBC): 250 µg/mL (≈ 634 µM); MBC ([2]; Pectobacterium atrosepticum, 36 h, 36 h of culture at 30° C., read-out: MBC): 250 µg/mL (≈ 634 µM) |
| CCCCCCCCCCCCNCC(O)C(O)C(O)C(C)O (centres unmarked) [compound IIIa] | showed a bactericidal activity | inhibition of the growth of the bacteria was observed | 16 (≈ 48 µM) | 32 (≈ 95.9 µM) | 24 | 62.5 (≈ 187 µM) | 32 (≈ 95.9 µM) | 100 | 100 | 100 | 100 | 100 | 100 | – | – | – | – | MIC (Dickeya dianthicola; [4]): 62.5 µg/mL (≈ 187 µM); MBC (Dickeya dianthicola; 36 h of culture at 30° C.): 62.5 µg/mL (≈ 187 µM) |
| CC(O)C(O)C(O)C(O)CNCCCCCCCCCCCCN (centres unmarked) [compound IIId] | showed a bactericidal activity | inhibition of the growth of the bacteria was observed | 52.5 (≈ 151 µM) | 62.5 (≈ 179 µM) | 0 | 250 (≈ 717 µM) | 62.5 (≈ 179 µM) | – | – | – | – | – | – | – | – | – | – | MIC (Dickeya dianthicola; [4]): 16 µg/mL (≈ 45.9 µM); MBC (Dickeya dianthicola; 36 h of culture at 30° C.): 125 µg/mL (≈ 359 µM) |
| CCCCNC1OC(C)[C@H](O)C(O)C1O (some centres unmarked) [compound Ib] | – | – | – | – | – | – | – | 0 | 0 | 4 | 0 | 0 | 0 | 76 | 90 | 70 | 88 | – |
| CCCCCNC1OC(C)[C@H](O)C(O)C1O (some centres unmarked) [compound Ic] | – | inhibition of the growth of the bacteria was observed | 125 (≈ 536 µM) | 62.5 (≈ 268 µM) | – | – | >500 | 10 | 33 | 89 | 0 | 18 | 99 | 90 | 100 | 99 | 100 | – |
| CCCCCNC1OC(C)[C@H](O)C(O)C1O (some centres unmarked) [compound Id] | showed a bactericidal activity | inhibition of the growth of the bacteria was observed | 62.5 (≈ 268 µM) | 62.5 (≈ 268 µM) | – | 250 (≈ 1070 µM) | 250 (≈ 1070 µM) | – | – | – | – | – | – | – | – | – | – | – |
| CC1OC(NCCCCCNC2OC(C)[C@H](O)C(O)C2O)C(O)C(O)[C@H]1O (some centres unmarked) [compound If] | – | inhibition of the growth of the bacteria was observed | >500 | 250 (≈ 634 µM) | – | – | – | – | – | – | – | – | – | – | – | – | – | – |
| CC1OC(NCCCCCNC2OC(C)[C@H](O)C(O)C2O)C(O)C(O)[C@H]1O (some centres unmarked) [compound Ih] | showed a bactericidal activity | inhibition of the growth of the bacteria was observed | 62.5 (≈ 158 µM) | 62.5 (≈ 158 µM) | – | 500 (≈ 1270 µM) | 125 (≈ 317 µM) | 12 | 27 | 100 | 0 | 28 | 90 | 100 | 100 | 93 | 93 | – |
| CC1OC(NCCCCCCCCCCCCN)C(O)C(O)C1O (centres unmarked) [compound Ii] | showed a bactericidal activity | – | 16 (≈ 46.2 µM) | 8 (≈ 23.1 µM) | – | 32 (≈ 92.3 µM) | 16 (≈ 46.2 µM) | 28 | 60 | 100 | 0 | 34 | 93 | 100 | 100 | 93 | 100 | – |
| CCCCCCCCCCCCNC1OC(CO)C(O)C(O)C1O (centres unmarked) [compound Ij] | showed a bactericidal activity | inhibition of the growth of the bacteria was observed | 8 (≈ 23 µM) | 16 (≈ 46 µM) | 24 | 16 (≈ 46 µM) | – | – | – | – | – | – | – | – | – | – | – | Inhibition of the growth of the fungi (Fusarium sambucinum; 1 μmol/ml): 50%; Inhibition of the growth of the fungi (Fusarium sambucinum; 2.5 μmol/ml): 50%; Inhibition of the growth of the fungi (Fusarium sambucinum; 5 μmol/ml): 100%; Inhibition of the growth of the fungi (Fusarium sambucinum; 10 μmol/ml): 100%; Inhibition of the growth of the fungi (Fusarium sambucinum; 20 μmol/ml): 100%; Inhibition of the growth of the fungi (Fusarium sambucinum; 25 μmol/ml): 100%; Inhibition of the growth of the fungi (Fusarium roseum; 1 μmol/ml): 100%; Inhibition of the growth of the fungi (Fusarium roseum; 2.5 μmol/ml): 100%; Inhibition of the growth of the fungi (Fusarium roseum; 5 μmol/ml): 100%; Inhibition of the growth of the fungi (Fusarium roseum; 10 μmol/ml): 100%; Inhibition of the growth of the fungi (Fusarium roseum; 20 μmol/ml): 100%; Inhibition of the growth of the fungi (Fusarium roseum; 25 μmol/ml): 100% |
| CCCCCCCCCCCCNC1OC(CO)C(O)C(O)C1O (centres unmarked) [compound Ik] | showed a bactericidal activity | inhibition of the growth of the bacteria was observed | 2 (≈ 5.76 µM) | 16 (≈ 46 µM) | 24 | – | 32 (≈ 92.1 µM) | 96 | 96 | 96 | 96 | 96 | 96 | – | – | – | – | – |
